This note sets out measurements from PubChem BioAssay AID540269 (Sanford-Burnham Center for Chemical Genomics, 2011).

This assay concerns the target glucose-6-phosphate dehydrogenase-6-phosphogluconolactonase (Plasmodium falciparum 3D7). As to the kind of experiment: PfG6PD enzyme inhibitors, kinetic NADPH readout, dose response, orthogonal assay, biochemical, kinetic NADPH detection (AID 540269). To be noted: purified PfG6PD-6PGL.

Calls of active or inactive are those of the source. The rule behind the calls is not given here. Where only a bound is given, the exact number is not on record here.

As for `Cc1nc2ccc(Nc3nc4cc(S(=O)(=O)N5CCOCC5)ccc4o3)cc2s1`, the IC50 – broadly, the concentration at which inhibition is half-maximal – is > 80 µM (inactive).

On to `CC1=CC(C)(C)Nc2ccc(OC(=O)CN3C(=O)CCC3=O)cc21`, for which the IC50 is 63.2 µM.

Turning to `COC1=C(N)C(=O)c2nc(C)ccc2C1=O`, the IC50 is > 80 µM (inactive).

For the molecule `CC(=O)Nc1ccc2sn(-c3ccccc3)c(=O)c2c1`, the IC50 was 24.1 µM.

For the molecule `Cc1ccc(NNS(=O)(=O)c2ccc(C)cc2)cc1`, the half-inhibitory concentration (IC50) was 36.8 µM.

On to `Cc1ccc(-c2c(C(=O)N/N=C/c3ccsc3)nnn2-c2nonc2N)cc1`, for which the IC50 is 64.8 µM.

For `CC(=O)c1cccc(NC(=O)c2cnn(-c3ccccc3)c2C)c1`, the half-maximal inhibitory concentration (IC50) was 58.4 µM.

Regarding `COc1c(O)ccc2c1CN1CCc3cc4c(cc3C1C2)OCO4` (configuration not stated), the IC50 was > 80 µM (inactive).

Regarding `Cc1ccc2nc3sc(C(=O)N4CCOCC4)c(N)c3cc2c1`, the IC50 is 37 µM.

For `COC1(OC)C=CC(=O)C=C1NC(=O)c1ccccc1OC(C)=O`, the IC50 was > 80 µM (inactive).

Regarding `O=[N+]([O-])c1ccc(N/N=C/c2ccc(O)c(O)c2O)c(S(=O)(=O)N2CCOCC2)c1`, the half-inhibitory concentration (IC50) is 75.5 µM.

`C[C@H](NC(=O)c1cc2c(cn1)[nH]c1ccccc12)C(=O)O`: the IC50 was > 80 µM (inactive).

Regarding `Cc1ccc(-c2nc(N3CCOCC3)s[n+]2-c2ccccc2)cc1`, the IC50 is > 80 µM (inactive).

For `COC(=O)CCC(=O)Nc1sc(Cc2ccccc2)c(C)c1C(N)=O`, the half-maximal inhibitory concentration (IC50) is 35.1 µM.

As to `CCC(C)(C)c1nnc(NC(=O)C2CCN(C(=O)c3ccco3)CC2)s1`, the IC50 was > 80 µM (inactive).

As to `Cc1ccsc1/C=N\NC(=O)CC(=O)NCc1ccccc1`, the IC50 is > 80 µM (inactive).

For `CCN1CCN(C(=S)c2ccc(Cl)c(Cl)c2)CC1`, the IC50 is > 80 µM (inactive).

With `Cn1c(=O)[nH]c(=O)c2c1[nH]c(=S)n2CCCc1ccccc1`, the IC50 was 43.7 µM.

For `N#Cc1ccc2sn(-c3ccccc3)c(=O)c2c1`, the 50% inhibitory concentration (IC50) is 14.8 µM.

As for `S=c1ncc2[nH]c(=S)[nH]c2[nH]1`, the IC50 was 64.4 µM.

With `COc1cc(-c2cc(OC)c(O)c(OC)c2)cc(OC)c1O`, the IC50 was > 80 µM (inactive).

Consider `O=C(O)c1ccccc1NS(=O)(=O)c1cccc(-n2sc3ccccc3c2=O)c1`, for which the half-inhibitory concentration (IC50) is 15.3 µM.

On to `CC(C)Sc1nnc(NC(=O)c2ccc3c(c2)OCO3)s1`, for which the IC50 was 29.5 µM.

Turning to `COc1cc(N)c2ncccc2c1OC`, the IC50 was > 80 µM (inactive).

For `CCOc1ccccc1NC(=O)CCCc1nc2ccccc2c(=O)[nH]1`, the IC50 is > 80 µM (inactive).

As to `Cc1[nH]c(=S)c(C#N)c(C)c1CCC#N`, the IC50 was > 80 µM (inactive).

For `COc1ccc(CCn2c(NN)nc3c2c(=O)[nH]c(=O)n3C)cc1`, the IC50 was 22.4 µM.

Turning to `CC1=NOC(=O)/C1=C\c1ccc(-c2ccccc2Br)o1`, the IC50 was > 80 µM (inactive).

With `Cc1ccc(S(=O)(=O)N(C)C)cc1NC(=O)CSc1nc2ncc(Cl)cc2[nH]1`, the IC50 was > 80 µM (inactive).

As to `Cc1c(/C=C/C(=O)c2ccc(Cl)s2)cnn1C`, the IC50 was 41.1 µM.

With `CC(C)Cn1c([N+](=O)[O-])nc2c1c(=O)[nH]c(=O)n2C`, the IC50 was > 80 µM (inactive).

With `O=C(CCc1ccc(S(=O)(=O)N2CCOCC2)cc1)N/N=C/c1ccc(O)c(O)c1O`, the IC50 was 36.5 µM.

For `CCN(CC)c1ccc(C(=C2C=CC(=[N+](CC)CC)C=C2)c2ccc(N(CC)CC)cc2)cc1`, the half-maximal inhibitory concentration (IC50) is 16.1 µM.

Take `C=CCOc1c(Cl)cc(CNc2ccc(N(C)C)cc2)cc1OC`: the half-maximal inhibitory concentration (IC50) is 61.5 µM.

As to `O=C(Cn1sc2ccccc2c1=O)Nc1ccccc1`, the IC50 is 14.3 µM.

As to `CC(=O)Nc1cc2c(cc1[N+](=O)[O-])-c1ccccc1C2O` (configuration not stated), the IC50 is > 80 µM (inactive).

As for `Cc1nnc(Sc2cc(NCCO)c([N+](=O)[O-])c3nonc23)s1`, the IC50 was 36.6 µM.
